Tests used:
uPAR protein = assay: Western blot analysis of uPAR protein in MDA-MB-231 breast carcinoma cells; assay type: cell-based, human
Description: Following incubations, the cells were lysed using a buffer containing 40 mM HEPES pH 7.2, 100 mM NaCl, 20% glycerol, 0.1 mM EDTA pH 8.0, 0.2% Triton X-100, 1 mM DTT, and 2 mM PMSF. The lysates were then subjected to homogenization, DNA shearing (10 times with a 25⅝-gauge needle), boiling (5 minutes) and centrifugation (15 minutes, 14000 g). The supernatant was collected and stored at −80° C. until use. The samples were subjected to SDS-polyacrylamide gel electrophoresis (PAGE) and the resolved proteins were transferred to an Immobilon-P membrane using a wet transfer apparatus (Bio-Rad Laboratories, Mississauga, ON). The membranes were blocked overnight at 4° C. in a solution containing 1% PBS, and 0.01% Tween20 (PBS-T) as well as 5% casein. The blots were subsequently incubated for 1.5 hours with the monoclonal anti-uPAR antibody [MoAb 3937], followed by six 5 minute washes with PBS-T. The membranes were then incubated with a horseradish peroxidase labeled goat anti-mouse IgG secondary antibody for 1.5 hours. Following six additional 5 minute washes with PBS-T, the antigen was detected by enhanced chemiluminescence and the blots were exposed onto Dupont Reflection NEF film.
Following incubation, the cells were lysed using a buffer containing 40 mM HEPES pH 7.2, 100 mM NaCl, 20% glycerol, 0.1 mM EDTA pH 8.0, 0.2% Triton X-100, 1 mM dithiothreitol (DTT), and 2 mM phenylmethyl sulfonyl fluoride (PMSF). The lysates were then subjected to homogenization, DNA shearing (10 times with a 25⅝-gauge needle), boiling (5 minutes) and centrifugation (15 minutes at 14,000×g). The supernatant was collected and stored at −80° C. until use. The samples were subjected to SDS-polyacrylamide gel electrophoresis (PAGE) and the resolved proteins were transferred to an Immobilon-P membrane (Millipore Corp., Bedford, Mass.) using a wet transfer apparatus (BioRad Laboratories, Mississauga, ON). The membranes were blocked overnight at 4° C. in a solution containing 1% PBS, and 0.01% Tween 20 (PBS-T) as well as 5% dry milk powder. The blots were subsequently incubated for 1.5 hours with the monoclonal anti-uPAR (MoAb 3937; American Diagnostica Inc., Greenwich, Conn.), or a polyclonal soluble guanylate cyclase (sGC) antiserum (Cayman Chemical, Ann Arbor, Mich.) followed by six 5-minute washes with PBS-T. Subsequently, the uPAR membranes were incubated for 1 hour with a horseradish peroxidase labelled goat anti-mouse IgG secondary antibody (Bio-Rad, Hercules, Calif.) and the sGC membranes were incubated for 1 hour with a goat anti-rabbit IgG horseradish peroxidase conjugate (VECTOR Laboratories Inc., Burlingame, Calif.). Following six additional 5-minute washes with PBS-T, the antigen was detected by enhanced chemiluminescence (Amersham Canada Inc., Mississauga, ON) and the blots were exposed onto Dupont Reflection NEF film.

PROXY-1 mRNA = PROXY-1 mRNA levels in HTR-8/SVneo invasive trophoblast cells; assay type: cell-based, human; settings: 1% O2
Text: PROXY-1 mRNA levels were very low in cells cultured in 20% O2.

PAI-1 mRNA = assay: Northern blot of PAI-1 mRNA in breast cancer cells; assay type: cell-based, human; settings: SNP 10^−12 M, GTN 10^−11 M
Description: Following incubation, the total cellular RNA from the cells was isolated using the Gentra […] RNA Isolation Kit. The isolated RNA was subsequently separated by electrophoresis, and transferred to charged nylon membranes. The membranes were prehybridized at 42° C. for approximately 2 hours in a solution containing 50% formamide, 5×Denhardt's solution, 0.5% sodium dodecyl sulfate (SDS), 6×SSC (1×SSC=0.15 M NaCl, 15 mM sodium citrate, pH 7.0) and 100 μg/mL denatured salmon sperm DNA. They were then hybridized with a [^32P]-dCTP-labeled cDNA probe (uPAR or PAI-1) for approximately 24 hours at 42° C. in a solution composed of 6×SSC, 0.5% SDS, 100 μg/mL denatured salmon sperm DNA and 50% formamide, and containing a cDNA probe (uPAR or PAI-1) which was labeled with [^32P]-dCTP using a Pharmacia Oligolabelling kit. Following serial washes, the membrane was used to expose Dupont Reflection NEF film. After 1-4 days, the film was developed and analyzed. To correct for differences in the amount of RNA loaded in each sample, 28S rRNA was used.

[1] = system: HTR-8/SVneo invasive trophoblast cells; assay: In vitro Matrigel invasion assay, HTR-8/SVneo; assay type: cell-based; settings: Homo sapiens, read-out: inhibition of invasiveness of hypoxic cells
Description: The chambers consist of cell culture inserts, 6.5 mm in diameter and with a 8 μm pore size membrane. Each membrane was coated with 100 μL of a 1 mg/mL solution of Matrigel diluted in cold serum-free culture medium (EX-CELL 300), and allowed to dry in a laminar flow cabinet for approximately 12 hours. The Matrigel was then rehydrated by incubating it with 100 μL of serum-free medium for approximately 1 hour. After rehydration, cell suspensions containing 5.0×10^4 or 1.0×10^5 cells in 100 μL of medium, containing both serum and the nitric oxide treatments, were added to each well. Culture medium containing serum and the respective nitric oxide treatment were then added to each insert. The cells were incubated for 24 hours under either hypoxic (1% O2) or control (20% O2) conditions. Following incubation, the non-invading cells were removed from the upper surface of the membrane by wiping with a cotton swab. The cells on the lower surface of the membrane were fixed for 10 minutes with Carnoy's fixative (25% acetic acid, 75% methanol), and then stained for approximately 3 hours with a 1% toluidine blue, 1% sodium borate solution. […] Invading cells were then viewed under the microscope at 40× magnification and counted. The invasion index for each treatment was calculated by dividing the number of invading cells by the number of cells which invaded under standard conditions. […]

O=[N+]([O-])OCC(CO[N+](=O)[O-])O[N+](=O)[O-] [GTN, glyceryl trinitrate]
uPAR protein levels vs 20% O2 alone (uPAR protein; combination of L-NMMA (0.5 mM) and GTN (0.1 nM), 20% O2): no significant increase | hypoxic upregulation of uPAR protein expression (uPAR protein; single doses GTN 1 pM, 1 nM and 0.1 μM, 24 hours 0.5% oxygen): prevent the upregulation | PROXY-1 mRNA levels in hypoxic cells (PROXY-1 mRNA; 10^−7 M GTN): increased | PROXY-1 mRNA levels in hypoxic cells (PROXY-1 mRNA; 10^−11 M GTN): much lower | PAI-1 mRNA levels vs untreated hypoxic cells (PAI-1 mRNA): significantly decreased | inhibition at 0.1 µM [1]: 56.2%
